Experimental data as given in patent publication US12612374B2, “Thiazole and diphenyl substituted sulfoxides for use in improving cognition functions and against addictions to substances” (Cogmotiv FlexCo, priority 2019, dated 2026).

Target: T1, human NET (Homo sapiens, UniProt P23975)
T1 construct: expressed in transfected cells
Assay: Monoamine transporter reuptake inhibition, [3H]-MPP+ uptake (NET)
Type: cell-based
Conditions: HEK 293 stably expressing human NET; 0.02 μM [3H]-MPP+, 3 min; means of at least three independent experiments; NS = Not specific in the used concentration range; read-out: NET IC50 ± SD

T1 sequence (P23975 whole entry): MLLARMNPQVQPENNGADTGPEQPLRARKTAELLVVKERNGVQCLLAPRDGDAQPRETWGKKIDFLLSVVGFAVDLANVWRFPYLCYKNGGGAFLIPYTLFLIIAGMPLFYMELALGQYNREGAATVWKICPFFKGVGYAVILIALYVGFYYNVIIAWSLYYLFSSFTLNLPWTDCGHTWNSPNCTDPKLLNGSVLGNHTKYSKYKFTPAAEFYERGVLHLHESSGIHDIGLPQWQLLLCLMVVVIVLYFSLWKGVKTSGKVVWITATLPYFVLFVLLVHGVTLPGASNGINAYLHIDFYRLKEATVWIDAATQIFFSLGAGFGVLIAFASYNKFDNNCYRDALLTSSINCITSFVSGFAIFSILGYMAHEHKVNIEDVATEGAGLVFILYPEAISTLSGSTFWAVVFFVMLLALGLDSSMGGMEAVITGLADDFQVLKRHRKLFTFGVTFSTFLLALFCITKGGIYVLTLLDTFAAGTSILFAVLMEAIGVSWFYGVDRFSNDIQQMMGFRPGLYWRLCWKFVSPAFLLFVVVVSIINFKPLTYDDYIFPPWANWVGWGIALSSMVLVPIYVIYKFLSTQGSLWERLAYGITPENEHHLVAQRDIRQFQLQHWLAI

Row | SMILES | IC50 [µM]
1 | [O-][S+](Cc1cncs1)C(c1ccccc1)c1cccc(Br)c1 (mixture of isomers) [(R), 5-((((3-bromophenyl)(phenyl)methyl)sulfinyl)methyl)thiazole] | 17.2 ± 4.5
2 | [O-][S@@+](Cc1cncs1)[C@@H](c1ccccc1)c1cccc(Br)c1 (single isomer, unassigned) [Compound 1_1] | 11.7 ± 7.3
3 | [O-][S@+](Cc1cncs1)[C@@H](c1ccccc1)c1cccc(Br)c1 [Compound 1_2] | 148 ± 68.4
4 | [O-][S@+](Cc1cncs1)[C@H](c1ccccc1)c1cccc(Br)c1 [Compound 2_2] | 13.9 ± 15.9
